Measurements: paper PMC12527922, “Cocaine chemogenetics blunts drug-seeking by synthetic physiology” (Nature, 2025)
Where “and” joins values, the source holds several entries; their conditions need not be identical. Equal entries are not always repeated.

Test system: GRABDA dopamine sensor, nucleus accumbens shell
Assay: Fibre photometry of dopamine (GRABDA) after cocaine administration
Format: in vivo, rat
Parameters: GRABDA dopamine response per dose (sheet 4i), individual rats / GRABDA dopamine response per dose (sheet 4i), Mean: unit not given here
Conditions: for GRABDA dopamine signal, Mean / GRABDA dopamine signal, individual rats: Cocaine 5 mg/kg; for GRABDA dopamine signal, AVG: ED Fig. 9a, Cocaine 10 mg/kg
Protocol: Male Sprague–Dawley rats were anaesthetized with isoflurane (1.5–2%) and then placed onto a stereotaxic frame (Kopf) and injected with AAV5-Syn::coca-5HT3-IRES-mCherry (0.5 µl, 4.95 × 10^12 vg per ml) into the LHb (AP, −3.8 mm relative to bregma; ML, ±0.7 mm; DV, −5.25 mm, at a 10° angle) (n = 5) or underwent sham surgery (n = 6). Rats were also implanted with an optic fibre (400 µm core, 0.50 NA) attached to a 2.5 mm diameter ferrule (Thorlabs) directed to the medial shell of the nucleus accumbens (AP, +1.7 mm relative to bregma; ML, ±0.9 mm; DV, −7.0 mm). To ensure that AAV9-Syn::GRABDA1m was transduced at the direct vicinity of the fibre tip, we coated the fibre with the AAV (0.4 µl, 5 × 10^12 vg per ml) using a silk fibroin film before its implantation as previously described.
For fibre photometry, dopamine (GRABDA) dynamics were measured using a Tucker-Davis Technologies (TDT) system in anaesthetized rats. […] Data were acquired at 1 kHz. On the testing day, rats were anaesthetized (isoflurane: induction, 5%; maintenance, 3%) and attached to a photometry patch cord (400 μm core, 0.50 NA). GRABDA signals were then collected for 5 min, followed by a saline i.p. injection, and additional GRABDA signal measurement for 20 min. Cocaine was then injected i.p. at 20, 10 or 5 mg per kg, and the GRABDA signal was measured for an additional 20 min. Each rat was tested three times with cocaine doses administered in randomized order. Fibre photometry analyses were performed using scripts in MATLAB R2023b (MathWorks) based on codes from the Barker (https://github.com/djamesbarker)[64] and Lerner (https://github.com/talialerner/)[65] laboratories. […] The GRABDA signal was normalized to values at 1 min before saline or cocaine injection and shown as the average z-scored activity per min. […] Fibre photometry data are represented as mean ± s.e.m. Statistical analyses were performed using Prism 10 (GraphPad).

SMILES: COC(=O)[C@H]1[C@@H](OC(=O)c2ccccc2)C[C@@H]2CC[C@H]1N2C [cocaine]
- GRABDA dopamine response per dose (sheet 4i), Mean (Coca-5HT3 rats, Dose 5 mg/kg): -63058.3
- GRABDA dopamine response per dose (sheet 4i), individual rats (Coca-5HT3 rats, Dose 5 mg/kg): -172031 and 384223 and 532188 and -477527 and -582145
- GRABDA dopamine response per dose (sheet 4i), Mean (Coca-5HT3 rats, Dose 10 mg/kg): 347550
- GRABDA dopamine response per dose (sheet 4i), individual rats (Coca-5HT3 rats, Dose 10 mg/kg): 537591 and 787483 and 404806 and 428321 and -420452
- GRABDA dopamine response per dose (sheet 4i), Mean (Coca-5HT3 rats, Dose 20 mg/kg): 29421.8
- GRABDA dopamine response per dose (sheet 4i), individual rats (Coca-5HT3 rats, Dose 20 mg/kg): -332785 and -760751 and 326619 and 420379 and 493647
- GRABDA dopamine signal, Mean (Time 0, sheet 4g, 6 rats): 0
- GRABDA dopamine signal, Mean (Time 0, sheet 4h, 5 rats): 0.3508
- GRABDA dopamine signal, Mean (Time 1, sheet 4g, 6 rats): 0.02583
- GRABDA dopamine signal, Mean (Time 1, sheet 4h, 5 rats): 0.1222
- GRABDA dopamine signal, Mean (Time 2, sheet 4g, 6 rats): 0.2299
- GRABDA dopamine signal, Mean (Time 2, sheet 4h, 5 rats): 0.04413
- GRABDA dopamine signal, Mean (Time 3, sheet 4g, 6 rats): 0.7586
- GRABDA dopamine signal, Mean (Time 3, sheet 4h, 5 rats): 0.02999
- GRABDA dopamine signal, individual rats (Time 4, sheet 4g): 0.7973 and 0.9252 and 2.611 and 0.5744 and 0.4159 and 0.8485
- GRABDA dopamine signal, Mean (Time 4, sheet 4g, 6 rats): 1.0287
- GRABDA dopamine signal, Mean (Time 4, sheet 4h, 5 rats): -0.002503
- GRABDA dopamine signal, individual rats (Time 5, sheet 4g): 1.23 and 1.254 and 3.178 and 1.255 and 0.28 and 0.3357
- GRABDA dopamine signal, Mean (Time 5, sheet 4g, 6 rats): 1.255
- GRABDA dopamine signal, Mean (Time 5, sheet 4h, 5 rats): 0.4003
- GRABDA dopamine signal, individual rats (Time 6, sheet 4g): 1.399 and 1.386 and 3.378 and 1.497 and 0.2966 and 0.5676
- GRABDA dopamine signal, Mean (Time 6, sheet 4g, 6 rats): 1.4208
- GRABDA dopamine signal, Mean (Time 6, sheet 4h, 5 rats): 0.7136
- GRABDA dopamine signal, individual rats (Time 7, sheet 4g): 1.395 and 1.753 and 3.423 and 2.3 and 0.321 and 1.639
- GRABDA dopamine signal, Mean (Time 7, sheet 4g, 6 rats): 1.805
- GRABDA dopamine signal, Mean (Time 7, sheet 4h, 5 rats): 0.8408
- GRABDA dopamine signal, individual rats (Time 8, sheet 4g): 1.672 and 1.969 and 3.288 and 2.2806 and 0.5769 and 1.2461
- GRABDA dopamine signal, Mean (Time 8, sheet 4g, 6 rats): 1.839
- GRABDA dopamine signal, Mean (Time 8, sheet 4h, 5 rats): 0.8223
- GRABDA dopamine signal, individual rats (Time 9, sheet 4g): 1.777 and 2.101 and 2.8254 and 2.6993 and 0.4303 and 1.7436
- GRABDA dopamine signal, Mean (Time 9, sheet 4g, 6 rats): 1.93
- GRABDA dopamine signal, Mean (Time 9, sheet 4h, 5 rats): 0.8303
- GRABDA dopamine signal, individual rats (Time 10, sheet 4g): 1.667 and 2.313 and 2.507 and 2.586 and 1.167 and 0.977
- GRABDA dopamine signal, Mean (Time 10, sheet 4g, 6 rats): 1.869
- GRABDA dopamine signal, Mean (Time 10, sheet 4h, 5 rats): 0.9165
- GRABDA dopamine signal, individual rats (Time 11, sheet 4g): 1.6386 and 2.495 and 2.468 and 3.874 and 0.606 and 2.597
- GRABDA dopamine signal, Mean (Time 11, sheet 4g, 6 rats): 2.28
- GRABDA dopamine signal, Mean (Time 11, sheet 4h, 5 rats): 0.6597
- GRABDA dopamine signal, individual rats (Time 12, sheet 4g): 1.957 and 2.546 and 2.0788 and 2.652 and 0.8197 and 2.605
- GRABDA dopamine signal, Mean (Time 12, sheet 4g, 6 rats): 2.11
- GRABDA dopamine signal, Mean (Time 12, sheet 4h, 5 rats): 0.5883
- GRABDA dopamine signal, individual rats (Time 13, sheet 4g): 1.603 and 2.238 and 1.918 and 2.979 and 1.082 and 2.101
- GRABDA dopamine signal, Mean (Time 13, sheet 4g, 6 rats): 1.987
- GRABDA dopamine signal, Mean (Time 13, sheet 4h, 5 rats): 0.5593
- GRABDA dopamine signal, individual rats (Time 14, sheet 4g): 1.849 and 2.2953 and 1.648 and 2.627 and 1.351 and 2.787
- GRABDA dopamine signal, Mean (Time 14, sheet 4g, 6 rats): 2.093
- GRABDA dopamine signal, Mean (Time 14, sheet 4h, 5 rats): 0.3765
- GRABDA dopamine signal, individual rats (Time 15, sheet 4g): 1.345 and 2.273 and 1.221 and 3.749 and 1.032 and 2.415
- GRABDA dopamine signal, Mean (Time 15, sheet 4g, 6 rats): 2.006
- GRABDA dopamine signal, Mean (Time 15, sheet 4h, 5 rats): 0.2825
- GRABDA dopamine signal, individual rats (Time 16, sheet 4g): 1.5856 and 2.161 and 1.005 and 2.897 and 1.378 and 2.623
- GRABDA dopamine signal, Mean (Time 16, sheet 4g, 6 rats): 1.942
- GRABDA dopamine signal, Mean (Time 16, sheet 4h, 5 rats): 0.2717
- GRABDA dopamine signal, individual rats (Time 17, sheet 4g): 1.282 and 2.066 and 0.8019 and 2.5132 and 1.107 and 1.846
- GRABDA dopamine signal, Mean (Time 17, sheet 4g, 6 rats): 1.6029
- GRABDA dopamine signal, Mean (Time 17, sheet 4h, 5 rats): 0.2019
- GRABDA dopamine signal, individual rats (Time 18, sheet 4g): 1.176 and 1.956 (2×) and 0.485 and 2.977 and 1.512
- GRABDA dopamine signal, Mean (Time 18, sheet 4g, 6 rats): 1.677
- GRABDA dopamine signal, Mean (Time 18, sheet 4h, 5 rats): 0.2838
- GRABDA dopamine signal, individual rats (Time 19, sheet 4g): 1.43 and 1.847 and 0.2727 and 2.8958 and 1.19 and 1.677
- GRABDA dopamine signal, Mean (Time 19, sheet 4g, 6 rats): 1.552
- GRABDA dopamine signal, Mean (Time 19, sheet 4h, 5 rats): 0.4407
- GRABDA dopamine signal, individual rats (Time -1, sheet 4g): 0.1891 and 0.00306 and 0.03687 and -0.1715
- GRABDA dopamine signal, Mean (Time -1, sheet 4g, 6 rats): 0.08979
- GRABDA dopamine signal, Mean (Time -1, sheet 4h, 5 rats): -0.1218
- GRABDA dopamine response per dose (sheet 4i), Mean (Control rats, Dose 5 mg/kg): 575620
- GRABDA dopamine response per dose (sheet 4i), individual rats (Control rats, Dose 5 mg/kg): 1106356 and 625102 and 499430 and 534300 and 481000 and 207530
- GRABDA dopamine response per dose (sheet 4i), Mean (Control rats, Dose 10 mg/kg): 513482
- GRABDA dopamine response per dose (sheet 4i), individual rats (Control rats, Dose 10 mg/kg): 1063773 and 869765 and 258346 and 365520 and 172520 and 350970
- GRABDA dopamine response per dose (sheet 4i), Mean (Control rats, Dose 20 mg/kg): 564660
- GRABDA dopamine response per dose (sheet 4i), individual rats (Control rats, Dose 20 mg/kg): 543312 and 940737 and 382973 and 597550 and 499710 and 423680
- GRABDA dopamine signal, AVG (Time 0): 0.01595
- GRABDA dopamine signal, AVG (Time 1): 0.04899
- GRABDA dopamine signal, AVG (Time 2): 0.1402
- GRABDA dopamine signal, AVG (Time 3): 0.549
- GRABDA dopamine signal, AVG (Time 4): 0.7571
